# Source: patent US5726162A (priority 1996, dated 1998)
# Test system: Magnaporthe grisea (Pyricularia oryzae)
# Test: whole plant or invertebrate
# Type: in vivo, Magnaporthe grisea (Pyricularia oryzae) on M201 rice plants
# Settings: Pyricularia oryzae, 144 h, read-out: % Control RB
row,SMILES,pest or weed control at 200 ppm
1,O=C1CCC(c2ccc(Cl)cc2)=NN1CC=C(Br)CBr [Compound 75],0%
2,CCC#CCN1N=C(c2ccc([N+](=O)[O-])cc2)CCC1=O [Compound 65],0%
3,C[Si](C)(C)C#CCN1N=C(c2ccc(Cl)cc2)CCC1=O [Compound 86],0%
4,CCC#CCN1N=C(c2ccc(C#N)cc2)CCC1=O [Compound 64],0%
5,"CCC#CCSc1ccc(-c2ccc(Cl)cc2)nn1 [Compound 152, 6-(4-chlorophenyl)-3-(2-pentyn-1-thio)-pyridazine]",0%
6,CCC#CCn1nc(-c2ccc(Cl)cc2)c(F)cc1=O [Compound 123],99%
7,CCC#CCN1N=C(c2ccc(OCC)cc2)CCC1=O [Compound 66],0%
8,C#CC#CCn1nc(-c2ccc(Cl)cc2)ccc1=O [Compound 125],0%
9,"CCC#CCN1N=C(c2ccc(Cl)cc2)CC=C1OC [Compound 158, 6-(4-chlorophenyl)-3-methoxy-2-(2'-pentyn-1-yl)-2,5-dihydropyridazine]",0%
10,O=C1CCC(c2ccc(Cl)cc2)=NN1CC#CC1CCCCC1 [Compound 94],0%
11,CCC#CCN1N=C(c2ccc(F)cc2)CCC1=O [Compound 82],0%
12,CC#CCN1N=C(c2ccc3ccccc3c2)CCC1=O [Compound 135],0%

# Test system: fungal mycelium
# Test: organism not typed
# Type: cell-based
# Settings: read-out: % growth inhibition
SMILES,inhibition at 100 ppm,inhibition at 50 ppm,inhibition at 25 ppm,inhibition at 10 ppm,inhibition at 1 ppm,inhibition at 0.5 ppm,inhibition at 2.5 ppm,inhibition at 5 ppm
"NNC(=O)CN1N=C(c2ccc(Cl)cc2)CCC1=O [Compound 233, 6-(4-chlorophenyl)-2-(acetyl hydrazide)4,5-dihydropyridazinone]",21%,–,–,–,–,–,–,–
O=C1CCC(c2ccc(Cl)cc2)=NN1CC=C(Br)CBr [Compound 75],100%,–,–,–,–,–,–,–
CCC#CCN1N=C(c2ccc([N+](=O)[O-])cc2)CCC1=O [Compound 65],–,84%,–,–,–,–,–,–
C[Si](C)(C)C#CCN1N=C(c2ccc(Cl)cc2)CCC1=O [Compound 86],80%,–,–,–,–,–,–,–
"CC(=O)CC(C)=NNC(=O)CN1N=C(c2ccc(Cl)cc2)CCC1=O [Compound 234, 6-(4-chlorophenyl)-2-[N-acetylhydrazide-(N'-2,4-pentanedione-hydrazone)]-4,5-dihydropyridazinone]",42%,–,–,–,–,–,–,–
O=C1CCC(c2ccc(Cl)cc2)=NN1Cc1nn(CC#CI)c(=O)o1 [Compound 241],100%,–,–,–,–,–,–,–
CCC#CCN1N=C(c2ccc(OC)c(C)c2)CCC1=O [Compound 226],–,100%,–,–,–,–,–,–
CCC#CCN1N=C(c2ccc(C#N)cc2)CCC1=O [Compound 64],–,–,100%,–,–,–,–,–
O=C1CCC(c2ccc(Cl)cc2)=NN1Cc1n[nH]c(=O)o1 [Compound 238],31.6%,–,–,–,–,–,–,–
"Cc1noc(C)c1CN1N=C(c2ccc(Cl)cc2)CCC1=O [Compound 231, 6-(4-chlorophenyl)-2-(3,5-dimethyl-4-isoxolylmethyl)-4,5-dihydropyridazinone]",–,–,–,36%,–,–,–,–
"CCC#CCSc1ccc(-c2ccc(Cl)cc2)nn1 [Compound 152, 6-(4-chlorophenyl)-3-(2-pentyn-1-thio)-pyridazine]",–,–,–,18.2%,–,–,–,–
"CCC#CCN1N=C(c2ccc(F)c(F)c2)CCC1=O [Compound 224, 6-(3,4-difluorophenyl)-2-(2'-pentynyl)-4,5-dihydropyridazinone]",–,100%,–,–,–,–,–,–
CCC#CCn1nc(-c2ccc(Cl)cc2)c(F)cc1=O [Compound 123],100%,–,–,–,–,–,–,–
"CCC#CCN1N=C(c2cccc(F)c2)CCC1=O [Compound 214, 6-(3-fluorophenyl)-2-(2'-pentynyl)-4,5-dihydropyridazinone]",–,100%,–,–,–,–,–,–
CCC#CCN1N=C(c2ccc(OCC)cc2)CCC1=O [Compound 66],–,–,100%,–,–,–,–,–
"CCC#CCN1N=C2c3ccc(Cl)cc3CCC2CC1=O (centres unmarked) [Compound 200, 4,4a,5,6-tetrahydro-8-chloro[h]-cinnolin-2-(2'-pentynyl)-3-one]",–,–,–,100%,–,–,–,–
"CCC#CCC1CC(c2ccc(Cl)cc2)=NN(C)C1=O (centres unmarked) [Compound 203, 6-(4-chlorophenyl)-4-(2'-pentynyl)-2-methyl-4,5-dihydropyridazinone]",–,–,–,100%,–,–,–,–
"CCC#CC(C)N1N=C(c2ccc(Cl)cc2)CCC1=O (centres unmarked) [Compound 208, 6-(4-chlorophenyl)-2-(1-methyl-2-pentynyl)-4,5-dihydropyridazinone]",–,–,–,–,28.6%,–,–,–
C#CC#CCn1nc(-c2ccc(Cl)cc2)ccc1=O [Compound 125],–,–,–,–,–,89.5%,–,–

SMILES,inhibition at 100 ppm,inhibition at 50 ppm,inhibition at 25 ppm,inhibition at 10 ppm,inhibition at 1 ppm,inhibition at 0.5 ppm,inhibition at 2.5 ppm,inhibition at 5 ppm
"CCC#CCN1N=C(c2ccc(Cl)cc2)CC=C1OC [Compound 158, 6-(4-chlorophenyl)-3-methoxy-2-(2'-pentyn-1-yl)-2,5-dihydropyridazine]",–,–,–,100%,–,–,–,–
O=C1CCC(c2ccc(Cl)cc2)=NN1CC#CC1CCCCC1 [Compound 94],–,–,–,22.2%,–,–,–,–
"CCC#CCN1N=C(c2cccc(C)c2)CCC1=O [Compound 215, 6-(3-methylphenyl)-2-(2'-pentynyl)-4,5-dihydropyridazinone]",–,100%,–,–,–,–,–,–
CCC#CCN1N=C(c2ccc(F)cc2)CCC1=O [Compound 82],–,–,–,–,–,–,100%,–
"CCC#CCn1nc2c(cc1=O)CCc1cc(Cl)ccc1-2 [Compound 202, 5 6-dihydro-8-chlorobenzo[h]cinnolin-3-(2'-pentynyl)-one]",–,–,–,100%,–,–,–,–
"CCC#CCN1N=C(c2ccc3c(c2)CCc2ccccc2-3)CCC1=O [Compound 227, 6-(9,10-dihydro-2-phenanthrene)-2-(2'-pentynyl)-4,5-dihydropyridazinone]",–,–,–,30%,–,–,–,–
"Cc1cc(C)n(C(=O)CN2N=C(c3ccc(Cl)cc3)CCC2=O)n1 [Compound 237, 6-(4-chlorophenyl)-2-(3,5-dimethyl-1-pyrazoylmethylene)-4,5-dihydropyridazinone]",58%,–,–,–,–,–,–,–
"CCC#CCN1N=C(c2ccccc2OC)CCC1=O [Compound 212, 6-(2-methoxyphenyl)-2-(2'-pentynyl)-4,5-dihydropyridazinone]",–,35%,–,–,–,–,–,–
"CCC#CCN1N=C(C=Cc2ccc(Cl)cc2)CCC1=O [Compound 205, 6-(4-chlorostyryl)-2-(2'-pentynyl)-4,5-dihydropyridazinone]",–,–,–,100%,–,–,–,–
CCC#CCn1nc(CN2N=C(c3ccc(Cl)cc3)CCC2=O)oc1=O [Compound 239],100%,–,–,–,–,–,–,–
"CCC#CCN1N=C(c2cccc(Cl)c2)CCC1=O [Compound 216, 6-(3-chlorophenyl)-2-(2'-pentynyl)-4,5-dihydropyridazinone]",–,100%,–,–,–,–,–,–
"CCC#CCN1N=C(c2ccccc2Cl)CCC1=O [Compound 211, 6-(2-chlorophenyl)-2-(2'-pentynyl)-4,5-dihydropyridazinone]",–,30%,–,–,–,–,–,–
CCC#CCN1N=C(c2ccc(Br)c(F)c2)CCC1=O [Compound 97],–,–,–,–,100%,–,–,–
"CCC#CCN1N=C(c2ccc(C)c(OC)c2)CCC1=O [Compound 220, 6-(3-methoxy-4-methylphenyl)-2-(2'-pentynyl)-4,5-dihydropyridazinone]",–,100%,–,–,–,–,–,–
"CCC#CCN1N=C(c2ccc(C)c(F)c2)CCC1=O [Compound 225, 6-(3-fluoro-4-methylphenyl)-2-(2'-pentynyl)-4,5-dihydropyridazinone]",–,100%,–,–,–,–,–,–
CCC#CCN1N=C(c2cc(F)cc(F)c2)CCC1=O [Compound 98],–,–,–,40%,–,–,–,–
"CCC#CCN1N=C(c2ccc(Cl)cc2)COC1=O [Compound 162, 2-(4-chlorophenyl)-3-(2-pentyn-1-yl)-3H, 6H-1,3,4-oxadiazin-2-one]",–,–,–,96.9%,–,–,–,–
"CCC#CCN1N=C(c2ccc3c(c2)OCO3)CCC1=O [Compound 207, 6-(3,4-methylenedioxyphenyl)-2-(2'-pentynyl)-4,5-dihydropyridazinone]",–,–,–,–,100%,–,–,–
"CCC#CCN1N=C(c2csc3ccccc23)CCC1=O [Compound 235, 6-(3-thianaphthene)-2-(2'-pentynyl)-4,5-dihydropyridazinone]",100%,–,–,–,–,–,–,–

SMILES,inhibition at 100 ppm,inhibition at 50 ppm,inhibition at 25 ppm,inhibition at 10 ppm,inhibition at 1 ppm,inhibition at 0.5 ppm,inhibition at 2.5 ppm,inhibition at 5 ppm
CC#CCN1N=C(c2ccc(Cl)cc2)COC1=O [Compound 163],–,–,–,12.7%,–,–,–,–
"CCC#CCN1N=C(c2ccccc2C)CCC1=O [Compound 210, 6-(2-methylphenyl)-2-(2'-pentynyl)-4,5-dihydropyridazinone]",–,35%,–,–,–,–,–,–
"CCC#CCn1nc(-c2csc3ccccc23)ccc1=O [Compound 236, 6-(3-thianaphthene)-2-(2'-pentynyl)-pyridazinone]",100%,–,–,–,–,–,–,–
"CCC#CCN1N=C(c2ccccc2F)CCC1=O [Compound 209, 6-(2-fluorophenyl)-2-(2'-pentynyl)-4,5-dihydropyridazinone]",–,85.7%,–,–,–,–,–,–
"CCC#CCN1N=C(c2cccc(OC)c2)CCC1=O [Compound 219, 6-(3-methoxyphenyl)-2-(2'-pentynyl)-4,5-dihydropyridazinone]",–,100%,–,–,–,–,–,–
CCC#CCn1nc(-c2cc(F)cc(F)c2)ccc1=O [Compound 126],–,–,–,100%,–,–,–,–
"CCC#CCN1N=C(CCc2ccc(Cl)cc2)CCC1=O [Compound 206, 6-(4-chlorophenethyl)-2-(2'-pentynyl)-4,5-dihydropyridazinone]",–,–,–,–,14.3%,–,–,–
"CCC#CCn1nc2c(cc1=O)-c1cccc3cccc-2c13 [Compound 232, 8-(2'-pentynyl)-acenaphtho[1,2c]pyridazin-9-one]",–,–,–,–,–,–,–,45.5%
"CCC#CCN1N=C(c2cnc3ccccc3n2)CCC1=O [Compound 230, 6-(2-quinoxaline)-2-(2'-pentynyl)-4,5-dihydropyridazinone]",–,–,–,30%,–,–,–,–
"CN1N=C(c2ccc(Cl)cc2)CCC1=O [Compound 201, 6-(4-chlorophenyl)-2-methyl-4,5-dihydropyridazinone]",–,–,–,10%,–,–,–,–
"CCC#CCN1N=C(c2cccc([N+](=O)[O-])c2)CCC1=O [Compound 218, 6-(3-nitrophenyl)-2-(2'-pentynyl)-4,5-dihydropyridazinone]",–,100%,–,–,–,–,–,–
"CCC#CCN1N=C(c2ccc(Cl)cc2)CSC1=O [Compound 165, 5-(4-chlorophenyl)-3-(2-pentyn-1-yl)-3H,6H-1,3,4-thiadiazin-2-one]",100%,–,–,–,–,–,–,–
"CCC#CCN1N=C(c2cccc(C#N)c2)CCC1=O [Compound 217, 6-(3-cyanophenyl)-2-(2'-pentynyl)-4,5-dihydropyridazinone]",–,100%,–,–,–,–,–,–
CCC#CCN1N=C(c2ccccc2)COC1=O [Compound 164],14.2%,–,–,–,–,–,–,–
"CCC#CCn1nc(-c2ccccc2)c(-c2ccccc2)c(C#N)c1=O [Compound 228, 5,6-diphenyl-4-cyano-2-(2'-pentynyl)-pyridazinone]",–,–,–,50%,–,–,–,–
"CCC#CCN1N=C(c2cccc(C(F)(F)F)c2)CCC1=O [Compound 213, 6-(3-trifluoromethylphenyl)-2-(2'-pentynyl)-4,5-dihydropyridazinone]",–,100%,–,–,–,–,–,–
"Cc1ccc(Cn2nc(-c3ccc(Cl)cc3)ccc2=O)o1 [Compound 204, 6-(4-chlorophenyl)-2-(5-methyl-2-furanylmethylene)-pyridazinone]",–,–,–,100%,–,–,–,–
"O=C(CN1N=C(c2ccc(Cl)cc2)CCC1=O)NN=Cc1cc(Cl)cc(Cl)c1O [Compound 240, 6-(4-chlorophenyl)-2-[N-acetylhydrazide-(N'-3,5-dichloro-2-hydroxy-phenylhydrazone)]-4,5-dihydropyridazinone]",14%,–,–,–,–,–,–,–
